Laboratory results: US7772272B2, “Method for enhancing glucose uptake into warm-blooded animal adipocytes” (Daiichi Sankyo Company, Limited, priority 2003, dated 2010)

Legend:
C57BL/ksj-db/db mice [1] = assay: Insulin tolerance test using pravastatin-dosed mice; type: in vivo, mouse; settings: pravastatin in feed for 2 weeks, 60 minutes after insulin 1 u/kg i.p., non-dose group 411 mg/dl
Description: (§1) A group administered with pravastatin by mixing in feed for 2 weeks and a non-dosed group of C57BL/ksj-db/db mice (n=5) were fasted for 2 hours. After measuring the body weight of each animal, insulin (Humalin, Lilly) was administered intraperitoneally at 1 u/kg, and blood samples were collected from the tail vein immediately before the start of administration and at 30, 60, 90 and 120 minutes after the start of administration followed by measurement of blood glucose levels.

C57BL/ksj-db/db mice [2] = assay: Blood glucose levels after administration of pravastatin in feed, C57BL/ksj-db/db mice; type: in vivo, mouse; settings: pravastatin mixed in feed (0.03% and 0.06% wt/wt), dose group, non-dose group 633 mg/dl
Description: (§2) C57BL/ksj-db/db mice (male, age 5 weeks) and KKAy mice (female, age 4 weeks) were purchased from Clea Japan, and used in the test after acclimating to the test environment for 1 week. The mice were housed 5 animals to a cage and given unrestricted access to feed (F2, Funabashi Farm) and water.
(§3) The body weights of the animals were measured and blood samples were collected on the day the test started, and the animals were divided into two groups of 5 animals per cage based on their body weights and blood glucose levels. Blood samples were collected at the start of the test and days 4, 7 and 14 after the start of the test in the case of the C57BL/ksj-db/db mice, and at the start of the test and on days 4, 7, 14 and 28 after the start of the test in the case of the KKAy mice. Blood samples were collected from the tail vein in an amount equal to one heparinized capillary tube.
(§4) Pravastatin powder was added to the F2 powder to 0.03% and 0.06% (wt/wt), uniformly mixed and provided to the animals in individual cages. The amount of feed and general behaviour were checked at least once a day.
(§5) Blood glucose levels were measured on the days when blood samples were collected.

KKAy mice = assay: Blood glucose levels after administration of pravastatin in feed, KKAy mice; type: in vivo, mouse; settings: pravastatin mixed in feed (0.03% and 0.06% wt/wt), dose group, non-dose group 521 mg/dl
Description: as §2, §3, §4, §5

3T3-L1 adipocytes = assay: Glucose uptake enhancing action (in vitro), 3H-2-deoxyglucose uptake in 3T3-L1 adipocytes; type: cell-based; settings: 10 μM test compound for 72 hours, insulin added, P<0.001
Description: Preadipocyte cell line 3T3-L1 was purchased from the American Type Culture Collection (ATCC). The 3T3-L1 cells were plated onto a 24-well, collagen-coated plate and cultured to saturation in growth medium (DMEM, 25 mM glucose, 10% FCS, 100 u/ml penicillin, 0.1 mg/ml streptomycin) under conditions of 37° C. and 5% CO2. Five days after cell proliferation had reached a saturated state, the medium was replaced with medium (DMEM, 25 mM glucose, 10% FCS, 100 u/ml penicillin, 0.1 mg/ml streptomycin) to which had been added 1 μM insulin, 0.5 mM 3-isobutyl-1-methylxanthine and 1 μM dexamethazone to initiate adipocyte differentiation. Two days later, the medium was replaced with growth medium containing 1 μM insulin followed by additionally culturing the cells for 2 days. Subsequently, the medium was replaced with fresh growth medium every 3 days, and the 3T3-L1 adipocytes were prepared on day 10 after the start of differentiation. […]
Measurement of glucose uptake was carried out in the manner described below. […] 160 μl of the cell lysate were mixed with 4 ml of Hionic Fluor (Perkin-Elmer) liquid scintillation counter cocktail followed by measurement of the radioactivity in the cell lysate with a liquid scintillation counter (Packard). The determined radioactivity of the ^3H-labeled was used as an indicator of the amount of glucose taken up into the cells.

[3] = system: C57BL/ksj-db/db mouse adipocytes; assay: Glucose uptake test using isolated adipocytes from pravastatin-dosed C57BL/ksj-db/db mice; type: in vivo; settings: isolated epididymal adipocytes from C57BL/ksj-db/db mice dosed with pravastatin for 1 week, insulin, 3H-2-deoxyglucose
Description: (§6) • (i) Epididymal adipose tissue was excised from a group administered with pravastatin for 1 week and a non-dosed group of C57BL/ksj-db/db mice (n=5). The excised adipose tissue was handled under conditions of 37° C. at all times. The adipose tissue was cut into small pieces with a scissors, followed by the addition of medium (DMEM, 1 mM sodium pyruvate, 25 mM HEPES pH 7.4, 0.1% BSA, 100 u/ml penicillin, 0.1 mg/ml streptomycin) containing 1 mg/ml of collagenase I (Worshington), and shaking at 37° C. and 80 rpm. Following the reaction, 2.5 volumes of the aforementioned medium were added, the adipocytes were screened out by passing the cell suspension through a 260 μm mesh sieve, and again passed through a 100 μm mesh sieve to prepare an adipocyte suspension.
(§7) An adipocyte suspension was prepared for C57BL/6J mice (normal mice) in the same manner as described above. • (ii) The glucose uptake test was carried out in the manner as described below. […] After cutting out the oil layer of the upper layer containing adipocytes with a knife, it was transferred to a glass vial containing 4 ml of Hionic Fluor (Perkin-Elmer) liquid scintillation counter cocktail followed by measurement of specific radioactivity. The amount of measured radioactivity of the ^3H-2-deoxyglucose was used as an indicator of the amount of glucose taken up by the cells. […]

C57BL/ksj-db/db mice [4] = assay: Glucose tolerance test using pravastatin-dosed mice; type: in vivo, mouse; settings: pravastatin in feed for 2 weeks, 60 minutes after administration (glucose 2 g/kg i.p.), non-dose group 517 mg/dl
Description: as §1, with “16 hours starting on the day before the start of the test.” for “2 hours.”, “glucose solution ([…])” for “insulin (Humalin, Lilly)”, “to 2 g/kg,” for “at 1 u/kg,”

[5] = system: C57BL/6J mouse adipocytes; assay: Glucose uptake test using isolated adipocytes from pravastatin-dosed C57BL/6J mice; type: in vivo; settings: isolated adipocytes from pravastatin-dosed C57BL/6J mice (normal mice), insulin, 3H-2-deoxyglucose
Description: as §6, §7

## CC[C@H](C)C(=O)O[C@H]1C[C@H](O)C=C2C=C[C@H](C)[C@H](CC[C@@H](O)C[C@@H](O)CC(=O)O)[C@H]21 [pravastatin, (+)-(3R,5R)-3,5-dihydroxy-7-[(1S,2S,6S,8S,8aR)-6-hydroxy-2-methyl-8-[(S)-2-methylbutyryloxy]-1,2,6,7,8,8a-hexahydro-1-naphthyl]heptanoic acid]
C57BL/ksj-db/db mice [1]
  blood glucose level in insulin tolerance test: 324 mg/dL
C57BL/ksj-db/db mice [2]
  blood glucose level: 438 mg/dL
KKAy mice
  blood glucose level: 351 mg/dL
3T3-L1 adipocytes
  amount of glucose uptake into the cells relative to control group: 1.9 times
[3]
  amount of glucose uptake by dose group relative to non-dose group: 2.0 times
C57BL/ksj-db/db mice [4]
  blood glucose level in glucose tolerance test: 342 mg/dL
[5]
  amount of glucose uptake by dose group relative to non-dose group: 1.4 times
